Experimental data published in ChEMBL document CHEMBL1201862, “PubChem BioAssay data set” (2004).
Active and inactive are the calls of the source.

Tests used:
Galanin receptor type 3 = Galanin receptor type 3 (Homo sapiens, UniProt O60755); test: Fluorescence-based cell-based primary high throughput dose response assay to identify antagonists of the Galanin Receptor 3 (GalR3).; format: functional
cells [1] = format: functional, cell-based; details: HEK-CNG
[2] = biological target: COUP transcription factor 2 (Homo sapiens, UniProt P24468); test: Luminescence-based cell-based high throughput dose response assay to identify inhibitors of COUP-TFII (NR2F2).; format: functional;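 also: HEK293 cells transiently cotransfected with COUP-TFII expression vector and reporter; luciferase reporter luminescence driven by COUP-TFII from the pX2-168 reporter plasmid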
Caspase-6 = biological target: T1, Caspase-6 (Homo sapiens, UniProt P55212); test: human caspase-6 inhibitors, dose response, biochemical, VEID-R110 fluorescence, cherry-pick (AID 720632)
T1 sequence (P55212 whole entry): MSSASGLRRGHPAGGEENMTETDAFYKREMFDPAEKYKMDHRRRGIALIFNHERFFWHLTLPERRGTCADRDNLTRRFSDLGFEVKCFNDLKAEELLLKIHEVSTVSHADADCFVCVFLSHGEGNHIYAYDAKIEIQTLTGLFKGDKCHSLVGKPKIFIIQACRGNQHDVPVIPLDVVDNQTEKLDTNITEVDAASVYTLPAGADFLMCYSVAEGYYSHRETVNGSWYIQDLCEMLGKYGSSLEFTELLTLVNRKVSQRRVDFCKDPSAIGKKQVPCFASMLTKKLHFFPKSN

[3] = biological target: T2, Sentrin-specific protease 8 (Homo sapiens, UniProt Q96LD8); format: functional
T2 sequence (Q96LD8 whole entry): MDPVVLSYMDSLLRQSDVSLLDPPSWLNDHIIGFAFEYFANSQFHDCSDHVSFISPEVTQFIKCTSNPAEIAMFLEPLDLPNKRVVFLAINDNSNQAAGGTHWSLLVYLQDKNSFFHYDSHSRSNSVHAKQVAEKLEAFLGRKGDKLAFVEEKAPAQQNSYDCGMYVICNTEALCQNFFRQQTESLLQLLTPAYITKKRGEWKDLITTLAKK

[4] = biological target: T2, Sentrin-specific protease 8; format: functional; remark: listed apart in the source
[5] = biological target: T3, Apoptotic protease-activating factor 1 (Homo sapiens, UniProt O14727); format: functional
T3 sequence (O14727 whole entry): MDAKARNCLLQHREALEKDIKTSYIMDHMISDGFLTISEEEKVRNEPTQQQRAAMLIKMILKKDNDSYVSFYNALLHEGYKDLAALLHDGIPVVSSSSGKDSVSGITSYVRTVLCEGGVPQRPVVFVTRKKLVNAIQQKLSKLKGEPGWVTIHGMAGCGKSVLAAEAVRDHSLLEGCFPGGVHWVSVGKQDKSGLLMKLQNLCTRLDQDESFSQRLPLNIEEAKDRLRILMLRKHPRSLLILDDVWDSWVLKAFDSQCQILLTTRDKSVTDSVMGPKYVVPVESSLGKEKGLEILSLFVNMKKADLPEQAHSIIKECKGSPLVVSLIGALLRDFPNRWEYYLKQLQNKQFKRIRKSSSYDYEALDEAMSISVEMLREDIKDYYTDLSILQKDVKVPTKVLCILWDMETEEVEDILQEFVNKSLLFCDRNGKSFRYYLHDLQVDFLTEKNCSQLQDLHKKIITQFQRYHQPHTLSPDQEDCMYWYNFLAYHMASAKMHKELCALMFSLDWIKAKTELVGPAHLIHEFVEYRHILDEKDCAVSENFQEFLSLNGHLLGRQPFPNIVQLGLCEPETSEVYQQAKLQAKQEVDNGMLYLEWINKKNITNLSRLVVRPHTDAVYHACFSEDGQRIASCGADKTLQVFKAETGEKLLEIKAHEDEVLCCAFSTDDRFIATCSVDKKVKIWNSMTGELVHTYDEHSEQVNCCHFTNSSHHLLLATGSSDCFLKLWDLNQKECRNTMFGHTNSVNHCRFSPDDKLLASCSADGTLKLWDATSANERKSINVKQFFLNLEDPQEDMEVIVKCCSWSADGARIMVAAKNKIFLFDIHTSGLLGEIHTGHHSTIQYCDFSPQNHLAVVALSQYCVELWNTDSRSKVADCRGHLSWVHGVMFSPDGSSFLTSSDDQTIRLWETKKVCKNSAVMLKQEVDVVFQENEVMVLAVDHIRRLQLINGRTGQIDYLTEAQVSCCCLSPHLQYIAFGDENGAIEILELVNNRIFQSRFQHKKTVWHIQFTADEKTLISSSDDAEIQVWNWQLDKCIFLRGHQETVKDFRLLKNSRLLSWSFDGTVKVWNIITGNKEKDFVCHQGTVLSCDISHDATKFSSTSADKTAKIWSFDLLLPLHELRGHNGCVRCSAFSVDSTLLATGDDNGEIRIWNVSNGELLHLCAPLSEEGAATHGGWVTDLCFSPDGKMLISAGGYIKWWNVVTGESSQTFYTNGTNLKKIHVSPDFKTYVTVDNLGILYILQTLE

Streptokinase A = biological target: T4, Streptokinase A (Streptococcus pyogenes serotype M1, UniProt P10520); test: S. pyogenes streptokinase expression inhibitors, potency, dose response, plasminogen activation absorbance, OD405 (AID 1914); format: functional, Streptococcus pyogenes M1 GAS;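 also: secreted streptokinase activity via plasminogen activation per viability signal from cell pellet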
T4 sequence (P10520 whole entry): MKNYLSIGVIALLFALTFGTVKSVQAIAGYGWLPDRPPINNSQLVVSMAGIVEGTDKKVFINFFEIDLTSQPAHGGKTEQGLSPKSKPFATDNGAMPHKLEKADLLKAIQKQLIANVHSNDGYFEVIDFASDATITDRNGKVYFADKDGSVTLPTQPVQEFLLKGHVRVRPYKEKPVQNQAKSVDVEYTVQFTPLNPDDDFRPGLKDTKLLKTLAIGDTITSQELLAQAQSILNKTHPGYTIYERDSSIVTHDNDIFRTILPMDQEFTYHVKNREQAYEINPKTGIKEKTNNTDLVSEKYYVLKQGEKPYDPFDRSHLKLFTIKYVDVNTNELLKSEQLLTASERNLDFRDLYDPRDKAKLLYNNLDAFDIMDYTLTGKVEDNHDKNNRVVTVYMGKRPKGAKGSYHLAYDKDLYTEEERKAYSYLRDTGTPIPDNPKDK

[6] = biological target: Hepatocyte nuclear factor 4-alpha (Homo sapiens, UniProt P41235); format: functional, cell-based;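 also: biochemical luminescence-based dose-response counterscreen measuring inhibition of HNF4 dimerization, run alongside a screen for blockers of ABHD5–perilipin-5 interaction; split luciferase complementation of HNF4 fusion proteins in cell lysate measuring dimerization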
[7] = CEM21 lymphoblast cell cytotoxicity, dose response, cytotoxicity control for viral fusion inhibitor project, CellTiter-Glo luminescence, cherry-picked (AID 652042); format: functional, cell-based;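 also: potency for signal decrease meaning cytotoxicity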
[8] = ZM109 Env clade C HIV-1 fusion inhibitors, dose response, HeLa effector, CEM target cells, luciferase, cherry-pick (AID 652058); format: functional, cell-based
A549 = test: A549 cell toxicity, dose response, cytotoxicity control, plate reader, cherry-pick samples (AID 687028); format: functional, cell-based; details: Homo sapiens
cells [9] = format: functional, cell-based
cells [10] = format: functional, cell-based; remark: listed apart in the source
[11] = biological target: Endoplasmic reticulum aminopeptidase 1 (Homo sapiens, UniProt Q9NZ08); test: ERAP1 aminopeptidase inhibitors, dose response, biochemical, cherry-pick, set 2, plate reader (AID 743314)
Paired box protein Pax-8 = Paired box protein Pax-8 (Homo sapiens, UniProt Q06710); test: inhibitors of PAX8-driven TPO luciferase reporter, dose response, RMG-I cells, cherry-pick (AID 687027); format: functional, cell-based;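 also: luciferase reporter driven by Pax8 target thyroperoxidase promoter measured by SteadyGlo luminescence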
[12] = P. falciparum Dd2 growth inhibitors, dose response, SYBR Green, dry powder samples, set 9 (AID 1159568); format: functional, cell-based
[13] = cytotoxicity in OVCAR8 ovarian cancer cells, dose response, PAX8 project, cell-based, plate reader, dry powder samples (AID 743197); format: functional; details: OVCAR-8
[14] = T. cruzi growth inhibition in host cells, dose response, cell-based, plate reader, dry powder, set 2 (AID 652275); format: functional
Protein Wnt-3a = Protein Wnt-3a (Mus musculus, UniProt P27467); test: SAR analysis of small molecule antagonists of Gli-SUFU in a Wnt3a luminescent reporter assay.; format: functional
[15] = cytotoxicity toward NIH3T3 fibroblasts, dose response, counter-screen, cell-based, ATP luminescence, mouse fibroblasts (AID 2010); format: functional;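 also: cells exposed to compound for about 90 hours before reading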
[16] = Luminescence Cell-Based Dose Retest to Confirm Inhibitors of Cancer Stem Cells. [Related pubchem assays (depositor defined):AID2717, AID2721]; format: functional; details: Homo sapiens
[17] = off-target signal loss in HeLa-CEM21 co-culture – HeLa F-luc CTL cells, cherry-picked, counter-screen for HIV-1 Env fusion inhibitor project, dose response (AID 652040); format: functional, cell-based;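 also: potency for signal decrease marking cytotoxic or nonspecific inhibition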
[18] = inhibitors of intracellular T. cruzi replication, confirmation, NIH3T3 host cells, beta-gal luminescence (AID 2044); format: functional, cell-based;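 also: intracellular parasites grown in NIH/3T3 mouse fibroblasts as host cells; luminescent beta-galactosidase reporter signal from transgenic T. cruzi replicating inside host cells; inhibitors lower the luminescence signal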
[19] = inhibitors of HIV Env-driven cell fusion, dose response, cherry-pick (AID 652057); format: functional, cell-based
[20] = growth suppression of beta-catenin-knockout colon cells, dose response, cell-based, HCT116, human colon tumor (AID 1045); format: functional;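 also: HCT116 colon tumor cells with beta catenin knocked out; cells exposed to compound for 60 hours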
[21] = growth suppression of PTEN-null colon cells, dose response, cell-based, HCT116 PTEN knockout (AID 1047); format: functional;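 also: HCT116 colon tumor cells with PTEN knocked out; cells exposed to compound for 60 hours before readout; potency for loss of cell viability measured by luminescence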
[22] = inhibitors of clade B AD8 Env fusion, dose response, cell-based, cherry-pick (AID 652062); format: functional;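 also: luciferase signal from cell-cell fusion driven by HIV-1 clade B AD8 Env; potency is for inhibitors of fusion seen as a drop in luminescence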
INS1 = test: beta cell apoptosis inhibitors, cytokine rescue, dose response, luminescence, retest (AID 449756); format: functional, cell-based; details: Rattus norvegicus;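 also: cell death triggered by IL-1 beta plus TNF-alpha plus IFN-gamma mixture; protective hits raise ATP signal compared with cytokine alone wells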
[23] = biological target: T5, Ubiquitin-conjugating enzyme E2 N (Homo sapiens, UniProt P61088); format: functional;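 also: Dose-response confirmation in a TR-FRET assay detecting UBC13-driven polyubiquitin chain formation, inhibition measured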
T5 sequence (P61088 whole entry): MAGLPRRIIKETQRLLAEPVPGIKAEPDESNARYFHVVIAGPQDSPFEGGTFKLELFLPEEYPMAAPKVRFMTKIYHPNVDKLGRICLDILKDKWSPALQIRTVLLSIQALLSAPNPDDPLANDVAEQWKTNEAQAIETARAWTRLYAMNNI

Hepatocyte nuclear factor 4-alpha, sequence (P41235 whole entry, the tested form may be a part): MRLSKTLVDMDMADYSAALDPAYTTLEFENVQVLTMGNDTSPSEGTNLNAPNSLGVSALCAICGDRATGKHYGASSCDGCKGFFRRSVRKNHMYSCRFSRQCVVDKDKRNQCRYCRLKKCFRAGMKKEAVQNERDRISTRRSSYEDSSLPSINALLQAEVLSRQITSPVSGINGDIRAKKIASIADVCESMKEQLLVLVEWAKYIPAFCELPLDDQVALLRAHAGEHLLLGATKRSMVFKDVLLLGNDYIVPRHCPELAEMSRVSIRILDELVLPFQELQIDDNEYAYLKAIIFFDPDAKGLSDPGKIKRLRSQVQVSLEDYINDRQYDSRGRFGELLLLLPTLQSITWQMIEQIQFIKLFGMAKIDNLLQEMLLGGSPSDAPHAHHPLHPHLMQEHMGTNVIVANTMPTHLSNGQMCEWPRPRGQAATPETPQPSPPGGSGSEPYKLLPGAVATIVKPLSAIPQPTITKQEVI
Endoplasmic reticulum aminopeptidase 1, sequence (Q9NZ08 whole entry): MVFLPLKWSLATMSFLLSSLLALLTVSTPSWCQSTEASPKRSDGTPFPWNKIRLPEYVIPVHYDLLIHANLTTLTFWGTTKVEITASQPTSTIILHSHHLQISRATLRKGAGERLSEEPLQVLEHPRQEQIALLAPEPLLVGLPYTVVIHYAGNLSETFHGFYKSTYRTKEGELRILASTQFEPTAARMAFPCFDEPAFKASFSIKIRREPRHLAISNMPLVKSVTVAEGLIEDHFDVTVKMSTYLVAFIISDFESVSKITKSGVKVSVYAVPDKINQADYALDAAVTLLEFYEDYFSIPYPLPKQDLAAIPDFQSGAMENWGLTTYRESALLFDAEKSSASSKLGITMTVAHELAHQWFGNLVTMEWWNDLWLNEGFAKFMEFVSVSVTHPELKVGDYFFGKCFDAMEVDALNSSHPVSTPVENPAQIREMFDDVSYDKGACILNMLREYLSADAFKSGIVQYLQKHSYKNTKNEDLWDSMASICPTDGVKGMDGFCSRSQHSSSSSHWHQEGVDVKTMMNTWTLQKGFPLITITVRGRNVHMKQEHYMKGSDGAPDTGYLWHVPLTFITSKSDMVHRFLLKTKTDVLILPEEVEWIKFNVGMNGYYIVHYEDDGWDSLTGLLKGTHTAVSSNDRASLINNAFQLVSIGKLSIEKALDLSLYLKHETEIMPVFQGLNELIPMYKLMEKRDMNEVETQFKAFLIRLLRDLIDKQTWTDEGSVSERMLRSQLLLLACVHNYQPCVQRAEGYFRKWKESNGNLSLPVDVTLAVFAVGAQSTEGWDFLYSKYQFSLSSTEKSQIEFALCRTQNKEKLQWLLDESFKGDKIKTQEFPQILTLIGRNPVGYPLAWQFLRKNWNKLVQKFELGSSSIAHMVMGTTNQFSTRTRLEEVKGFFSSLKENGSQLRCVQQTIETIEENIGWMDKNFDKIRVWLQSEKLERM
Galanin receptor type 3, sequence (O60755 whole entry): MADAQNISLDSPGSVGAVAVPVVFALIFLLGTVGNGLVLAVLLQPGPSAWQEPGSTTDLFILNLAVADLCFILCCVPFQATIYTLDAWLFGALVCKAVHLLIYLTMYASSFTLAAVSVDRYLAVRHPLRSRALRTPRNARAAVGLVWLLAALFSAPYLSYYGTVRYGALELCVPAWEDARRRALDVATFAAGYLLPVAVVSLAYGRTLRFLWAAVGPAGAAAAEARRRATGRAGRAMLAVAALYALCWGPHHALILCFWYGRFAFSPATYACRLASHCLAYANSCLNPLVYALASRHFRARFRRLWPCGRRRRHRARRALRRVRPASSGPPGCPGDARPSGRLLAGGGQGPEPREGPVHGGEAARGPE
Paired box protein Pax-8, sequence (Q06710 whole entry): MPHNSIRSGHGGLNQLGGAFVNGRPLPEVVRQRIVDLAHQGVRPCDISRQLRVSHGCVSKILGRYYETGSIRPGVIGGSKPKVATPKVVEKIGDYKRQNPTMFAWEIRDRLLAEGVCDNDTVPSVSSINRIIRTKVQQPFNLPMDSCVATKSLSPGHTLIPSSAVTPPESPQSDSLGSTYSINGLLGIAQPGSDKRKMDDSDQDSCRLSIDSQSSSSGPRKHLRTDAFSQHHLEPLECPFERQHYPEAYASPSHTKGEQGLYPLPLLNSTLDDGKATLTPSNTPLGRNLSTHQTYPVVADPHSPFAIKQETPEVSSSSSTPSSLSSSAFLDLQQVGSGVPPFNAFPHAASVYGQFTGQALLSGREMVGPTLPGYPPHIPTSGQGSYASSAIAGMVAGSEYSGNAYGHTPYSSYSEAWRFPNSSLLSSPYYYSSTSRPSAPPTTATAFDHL
COUP transcription factor 2, sequence (P24468 whole entry): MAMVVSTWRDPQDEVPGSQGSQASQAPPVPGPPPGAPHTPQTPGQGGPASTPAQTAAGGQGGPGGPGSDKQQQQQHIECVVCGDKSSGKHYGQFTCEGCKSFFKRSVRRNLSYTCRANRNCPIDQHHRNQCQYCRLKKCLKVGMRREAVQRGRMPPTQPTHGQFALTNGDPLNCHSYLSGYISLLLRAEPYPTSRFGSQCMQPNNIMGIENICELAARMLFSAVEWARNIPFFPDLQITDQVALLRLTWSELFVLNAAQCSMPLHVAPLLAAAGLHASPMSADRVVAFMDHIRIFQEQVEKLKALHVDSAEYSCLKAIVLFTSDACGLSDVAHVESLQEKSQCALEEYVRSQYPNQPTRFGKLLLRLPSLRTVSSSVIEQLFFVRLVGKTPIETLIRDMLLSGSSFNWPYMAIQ
Protein Wnt-3a, sequence (P27467 whole entry): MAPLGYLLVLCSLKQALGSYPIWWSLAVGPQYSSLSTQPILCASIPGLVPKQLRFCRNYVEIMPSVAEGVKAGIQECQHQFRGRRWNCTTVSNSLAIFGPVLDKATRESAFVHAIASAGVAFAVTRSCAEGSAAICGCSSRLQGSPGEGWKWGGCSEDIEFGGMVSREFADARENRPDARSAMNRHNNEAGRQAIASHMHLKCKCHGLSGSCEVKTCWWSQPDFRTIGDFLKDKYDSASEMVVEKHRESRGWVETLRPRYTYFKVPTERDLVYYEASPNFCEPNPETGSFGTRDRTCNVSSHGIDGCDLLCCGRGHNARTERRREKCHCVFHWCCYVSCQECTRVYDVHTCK

CCC(CC)C(=O)Nc1ccc([N+](=O)[O-])cn1
IC50 (Galanin receptor type 3): > 29.9 µM (inactive)
EC50 (cells [1]): > 29.9 µM (inactive)

Cc1ccc(Cl)cc1S(=O)(=O)N1CCC(C(=O)NC2CCN(Cc3ccccc3)CC2)CC1
IC50 [2]: 12 µM (inactive)

Cc1cccc(N2C(=O)Cc3ccccc3C2=O)c1
AC50 (Caspase-6): 22.7 µM (active)
IC50 [3]: > 100 µM (inactive)
IC50 [4]: 5.17 µM (active)

CCCCC[n+]1ccn(C2=C([N-]S(=O)(=O)c3ccc(Br)cc3)C(=O)c3ccccc3C2=O)c1
IC50 [5]: 9.66 µM (active)
EC50 (Streptokinase A): > 150 µM (not active)

CC(C)(C)CN1CCN(Cc2nc(-c3ccc(F)cc3)cs2)CC1CCO (stereo not drawn)
IC50 (Galanin receptor type 3): 2.83 µM (active)
EC50 (cells [1]): > 29.9 µM (inactive)

N#Cc1ccccc1OCc1cn(CC(=O)c2ccc(O)cc2)nn1
IC50 [6]: 6.36 µM (active)

C[C@@H]1CN([C@H](C)CO)S(=O)(=O)c2ccc(C#Cc3cccc(F)c3)cc2O[C@@H]1CN(C)C(=O)CN1CCOCC1
AC50 [7]: 40.3 µM (active)
AC50 [8]: 0.899 µM (active)

Cc1cccnc1C(NC(=O)C1CCN(CCCc2ccccc2)CC1)c1ccc(Cl)cc1 (stereo not drawn)
AC50 (A549): 27.9 µM (active)

O=C(O)C1C2CCC(C2)C1C(=O)NCCc1ccccc1 (stereo not drawn)
IC50 (cells [9]): > 29.9 µM (inactive)
EC50 (cells [10]): > 29.9 µM (inactive)

CC(C)(C)NC(=O)C(c1ccc(C#N)cc1)n1c(=O)c(-c2ccco2)nc2ccccc21 (stereo not drawn)
IC50 [6]: 1.47 µM (active)

CCCNC(=O)N(C)C[C@@H]1Oc2ncc(-c3ccncc3)cc2C(=O)N([C@H](C)CO)C[C@@H]1C
AC50 [11]: 16.9 µM (active)

CS(=O)(=O)N1C[C@@H]2N[C@H](C1)[C@@H]2c1ccc(-c2ccccc2)cc1
AC50 (Paired box protein Pax-8): 4.42 µM (active)
AC50 (A549): 17.7 µM (active)
AC50 [12]: 9.14 µM (active)
AC50 [13]: > 60 µM (inactive)

C[C@H]1CN([C@@H](C)CO)C(=O)c2cccc(NC(=O)c3ccncc3)c2O[C@@H]1CN(C)Cc1ccc(F)cc1Cl
AC50 [14]: 0.0324 µM (active)

CN(C)c1cc(NC(=O)c2ccccc2)ncn1
IC50 (Protein Wnt-3a): > 21.8 µM (inactive)

CN(C)C(=O)c1ccc(-c2ccc([C@H]3[C@H](CO)N4CCCCN(CC5CC5)C[C@@H]34)cc2)cc1
AC50 [14]: 2.74 µM (active)

CCC(=O)N1[C@H](C(=O)OC)[C@@H](CO)[C@@H]2Cn3c(ccc(/C=C/c4ccccc4)c3=O)[C@@H]21
AC50 [11]: 12.8 µM (active)

Cc1ccc(Nc2cc(C)nc(NCc3ccccc3)n2)cc1
EC50 [15]: > 60 µM (inconclusive)
AC50 [16]: 6.3 µM (active)
AC50 [17]: 4.77 µM (active)
EC50 [18]: 0.255 µM (active)
AC50 [19]: 4.04 µM (active)
EC50 [20]: 6.62 µM (active)
EC50 [21]: 7.18 µM (active)
AC50 [22]: 7.54 µM (active)
AC50 [7]: 17.2 µM (active)
AC50 (INS1): 3.94 µM (active)
AC50 [8]: 4.51 µM (active)
IC50 [23]: > 20 µM (inactive)
